Results reported in patent EP1175509B1 (priority 1999, dated 2000).

Columns and labels:
Assay type in all cases: biochemical
Conditions in all cases: pH 8
Equine-BChE, soluble = Equine-BChE, soluble (Equus caballus, UniProt P81908)
[1] = biological target: Equine-BChE, immobilized (polyurethane coupled) (Equus caballus, UniProt P81908)
[2] = biological target: T1, FBS-AChE, immobilized (polyurethane coupled) (Bos taurus, UniProt P23795)
T1 sequence (P23795 31-613): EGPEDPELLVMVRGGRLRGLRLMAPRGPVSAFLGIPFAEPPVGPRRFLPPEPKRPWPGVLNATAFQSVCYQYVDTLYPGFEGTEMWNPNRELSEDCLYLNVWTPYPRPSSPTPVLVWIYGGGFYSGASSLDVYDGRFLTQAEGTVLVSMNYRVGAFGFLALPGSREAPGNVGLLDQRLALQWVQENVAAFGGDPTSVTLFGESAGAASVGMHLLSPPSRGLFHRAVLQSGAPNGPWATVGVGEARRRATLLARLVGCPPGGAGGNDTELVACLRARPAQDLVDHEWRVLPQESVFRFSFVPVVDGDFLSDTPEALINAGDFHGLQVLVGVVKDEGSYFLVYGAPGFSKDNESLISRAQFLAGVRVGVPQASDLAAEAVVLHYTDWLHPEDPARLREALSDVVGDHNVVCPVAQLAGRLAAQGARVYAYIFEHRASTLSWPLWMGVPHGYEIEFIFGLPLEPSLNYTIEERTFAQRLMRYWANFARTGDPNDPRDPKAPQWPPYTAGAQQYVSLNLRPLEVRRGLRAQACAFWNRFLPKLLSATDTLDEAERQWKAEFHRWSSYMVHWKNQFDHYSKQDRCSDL

FBS-AChE, soluble = biological target: T2, FBS-AChE, soluble (Bos taurus, UniProt P23795)
T2 sequence (P23795 31-613): T1 sequence (P23795 31-613)

Equine-BChE, immobilized (polyurethane coupled), sequence (P81908 whole entry): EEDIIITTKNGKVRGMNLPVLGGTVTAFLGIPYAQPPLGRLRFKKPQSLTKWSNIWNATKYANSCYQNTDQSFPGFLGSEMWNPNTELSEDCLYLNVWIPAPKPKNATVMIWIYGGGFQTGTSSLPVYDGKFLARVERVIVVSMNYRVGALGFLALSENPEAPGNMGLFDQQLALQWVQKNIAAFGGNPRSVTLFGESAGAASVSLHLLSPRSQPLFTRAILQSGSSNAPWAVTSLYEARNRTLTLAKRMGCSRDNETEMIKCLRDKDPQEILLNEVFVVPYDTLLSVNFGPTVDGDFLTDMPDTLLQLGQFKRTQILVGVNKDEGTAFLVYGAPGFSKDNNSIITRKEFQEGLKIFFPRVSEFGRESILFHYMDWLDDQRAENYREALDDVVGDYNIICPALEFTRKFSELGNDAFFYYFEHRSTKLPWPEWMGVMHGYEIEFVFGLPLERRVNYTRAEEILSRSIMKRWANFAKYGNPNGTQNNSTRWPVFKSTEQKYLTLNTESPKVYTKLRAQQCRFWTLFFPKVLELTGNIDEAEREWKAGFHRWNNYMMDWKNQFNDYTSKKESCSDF
Equine-BChE, soluble, sequence (P81908 whole entry): as above

SMILES | B (Equine-BChE, soluble) | Kcat (Equine-BChE, soluble) [s⁻¹] | Km (Equine-BChE, soluble) [µM] | Kss (Equine-BChE, soluble) [mM] | Kcat [1] [s⁻¹] | Km [1] [µM] | Kss [1] [mM] | Kcat [2] [s⁻¹] | Km [2] [µM] | Kss [2] [mM] | Kcat (FBS-AChE, soluble) [s⁻¹] | Km (FBS-AChE, soluble) [µM] | Kss (FBS-AChE, soluble) [mM]
CCCC(=O)SCC[N+](C)(C)C.[I-] [butyrylthiocholine, S-butyrylthiocholine iodide] | 1.8 | 517 | 127 | 1.5 | 300 | 1200 | 16 |  |  |  |  |  | 
CC(=O)SCC[N+](C)(C)C.[I-] [acetylthiocholine, Acetylthiocholine iodide] |  |  |  |  |  |  |  | 983 | 1090 | 22 | 4670 | 119 | 18
